Patent US4060608A, “Substituted hydroxymethyl benzodiazepines” (DDSA Pharmaceuticals, priority 1975, dated 1977)
Structures can show the parent of a compound that is named as a salt.

Tests used:
Type in all cases: in vivo
mice [1] = assay: Rotarod test (neuro-muscular coordination), groups of 5 mice, 2 minute test periods for 5 hours after dosage
From the text: (§1) In humans, this retention of coordination would avoid or reduce the disadvantages of loss of concentration and related side effects commonly associated with benzodiazepine drugs. The observation of this effect was made on groups of five mice subjected to a Rotarod test.

[2] = 7-day median lethal dose (LD50) in female mice; conditions: mouse, in vivo, 7-day
From the text: (§2) The compounds in which R4 is furyl are of particular interest. Their psychotropic action is as disclosed above, but in addition their toxicity tends to be low. […] The higher toxicity at lower temperatures was thought to be caused by […] induced by the compound under test.

female mice = assay: 7-day median lethal dose (LD50) in female mice
From the text: as §2

[3] = diuretic activity at sedating dose; conditions: dose levels producing sedation (200 mg/Kg)
From the text: At a clinical dose level it can therefore be assumed that there would be no diuretic effect.

mice [4] = assay: observation of sedation/tranquillization and hypnotic state in the mice of the Rotarod test
From the text: as §1
*2/5 mice in hypnotic state - not returned to rotarod.

Compound: CN(C)CCCN1c2ccccc2Sc2ccc(Cl)cc21 [Chlorpromazine, reference compound]
- Total Number of Falls (mice [1]; 15 mg./kg., 0 mins. after dosage, 5 mice): 0
- Total Number of Falls (mice [1]; 15 mg./kg., 15 mins. after dosage, 5 mice): 1
- Total Number of Falls (mice [1]; 15 mg./kg., 30 mins. after dosage, 5 mice): 0
- Total Number of Falls (mice [1]; 15 mg./kg., 45 mins. after dosage, 5 mice): 5
- Total Number of Falls (mice [1]; 15 mg./kg., 60 mins. after dosage, 5 mice): 13
- Total Number of Falls (mice [1]; 15 mg./kg., 90 mins. after dosage, 5 mice): 17
- Total Number of Falls (mice [1]; 15 mg./kg., 120 mins. after dosage, 5 mice): 14
- Total Number of Falls (mice [1]; 15 mg./kg., 180 mins. after dosage, 5 mice): 9
- Total Number of Falls (mice [1]; 15 mg./kg., 240 mins. after dosage, 5 mice): 13
- Total Number of Falls (mice [1]; 15 mg./kg., 300 mins. after dosage, 5 mice): 9

Compound: CN(C1=Nc2ccc(Cl)cc2C(c2ccccc2)=[N+]([O-])C1)C(O)c1ccco1 (stereo not shown) [SH60, 7-chloro-2-(N-methyl-N-1-hydroxyfurfurylamino)-5-phenyl-3H-1,4-benzodiazepine-4-oxide hydrochloride]
- LD50 at 168 h ([2]; at 23° C): 900 mg/kg
- LD50 at 168 h ([2]; at 30° C): 1080 mg/kg
- toxicity, indicated by the LD50, compared with conventional and commercially used benzodiazepine drugs (female mice): significantly lower than that of conventional and commercially used benzodiazepine drugs
- diuretic activity [3]: minimal diuretic activity
- Total Number of Falls (mice [1]; 20 mg./kg., 0 mins. after dosage, 5 mice): 2
- Total Number of Falls (mice [1]; 20 mg./kg., 15 mins. after dosage, 5 mice): 0
- Total Number of Falls (mice [1]; 20 mg./kg., 30 mins. after dosage, 5 mice): 0
- Total Number of Falls (mice [1]; 20 mg./kg., 45 mins. after dosage, 5 mice): 0
- Total Number of Falls (mice [1]; 20 mg./kg., 60 mins. after dosage, 5 mice): 0
- Total Number of Falls (mice [1]; 20 mg./kg., 90 mins. after dosage, 5 mice): 0
- Total Number of Falls (mice [1]; 20 mg./kg., 120 mins. after dosage, 5 mice): 0
- Total Number of Falls (mice [1]; 20 mg./kg., 180 mins. after dosage, 5 mice): 0
- Total Number of Falls (mice [1]; 20 mg./kg., 240 mins. after dosage, 5 mice): 0
- Total Number of Falls (mice [1]; 20 mg./kg., 300 mins. after dosage, 5 mice): 0
- Total Number of Falls (mice [1]; 100 mg./kg., 0 mins. after dosage, 5 mice): 2
- Total Number of Falls (mice [1]; 100 mg./kg., 15 mins. after dosage, 5 mice): 0
- Total Number of Falls (mice [1]; 100 mg./kg., 30 mins. after dosage, 5 mice): 0
- Total Number of Falls (mice [1]; 100 mg./kg., 45 mins. after dosage, 5 mice): 0
- Total Number of Falls (mice [1]; 100 mg./kg., 60 mins. after dosage, 5 mice): 0
- Total Number of Falls (mice [1]; 100 mg./kg., 90 mins. after dosage, 5 mice): 0
- Total Number of Falls (mice [1]; 100 mg./kg., 120 mins. after dosage, 5 mice): 0
- Total Number of Falls (mice [1]; 100 mg./kg., 180 mins. after dosage, 5 mice): 0
- Total Number of Falls (mice [1]; 100 mg./kg., 240 mins. after dosage, 5 mice): 0
- Total Number of Falls (mice [1]; 100 mg./kg., 300 mins. after dosage, 5 mice): 0
- Total Number of Falls (mice [1]; 200 mg./kg., 0 mins. after dosage, 5 mice): 0
- Total Number of Falls (mice [1]; 200 mg./kg., 15 mins. after dosage, 5 mice): 0
- Total Number of Falls (mice [1]; 200 mg./kg., 30 mins. after dosage, 5 mice): 23
- Total Number of Falls (mice [1]; 200 mg./kg., 45 mins. after dosage, 5 mice): 27
- Total Number of Falls (mice [1]; 200 mg./kg., 60 mins. after dosage, 5 mice): 36
- Total Number of Falls (mice [1]; 200 mg./kg., 90 mins. after dosage, 5 mice): 34
- Total Number of Falls (mice [1]; 200 mg./kg., 120 mins. after dosage, 5 mice): 40
- Total Number of Falls (mice [1]; 200 mg./kg., 180 mins. after dosage, 2/5 mice in hypnotic state - not returned to rotarod): ≥ 26
- Total Number of Falls (mice [1]; 200 mg./kg., 240 mins. after dosage, 2/5 mice in hypnotic state - not returned to rotarod): ≥ 37
- Total Number of Falls (mice [1]; 200 mg./kg., 300 mins. after dosage, 2/5 mice in hypnotic state - not returned to rotarod): ≥ 30
- effect on muscular coordination (mice [1]; mice, 20 mg/Kg): no apparent effect on muscular coordination
- effect on muscular coordination (mice [1]; mice, 100 mg/Kg): no apparent effect on muscular coordination
- difficulty in maintaining balance on the rotating rod (mice [1]; mice, 200 mg/Kg): all animals showed difficulty in maintaining balance on the rotating rod
- neuro-muscular coordination (mice [1]; mice, dose levels producing tranquilizing and sedative effects): normal neuro-muscular coordination
- mice in hypnotic state - not returned to rotarod (mice [4]; 200 mg./kg., footnote to 180, 240 and 300 mins. after dosage): 2/5
- sedation/tranquillization (mice [4]; mice, 20 mg/Kg): apparent sedation/tranquillization
- sedation/tranquillization (mice [4]; mice, 100 mg/Kg): apparent sedation/tranquillization
- sedation (mice [4]; mice, 200 mg/Kg, after 30 minutes): marked sedation
